# Test results reported in patent publication US8877748B2, “Heterocyclic fused anthraquinone derivatives, manufacturing method and pharmaceutical composition using thereof” (National Defense Medical Center, priority 2012, dated 2014).
# How the values were obtained:
# human tumor cell lines = assay: NCI one-dose screening, mean, delta and range of growth percent over all cell lines tested; type: cell-based
# MDA, -MB-435 = assay: NCI one-dose screening, breast cancer MDA, -MB-435; type: cell-based, human; conditions: Melanoma, MDA-MB-435, 10 μM
# CAKI-1 = assay: NCI one-dose screening, renal cancer CAKI-1; type: cell-based, human; conditions: CAKI-1, 10 μM
# BT-549 = assay: NCI one-dose screening, breast cancer BT-549; type: cell-based, human; conditions: BT-549, 10 μM
# OVCAR-4 = assay: NCI one-dose screening, ovarian cancer OVCAR-4; type: cell-based, human; conditions: OVCAR-4, 10 μM
# HCT-116 = assay: NCI one-dose screening, colon cancer HCT-116; type: cell-based, human; conditions: HCT-116, 10 μM
# EKVX = assay: NCI one-dose screening, non-small cell lung cancer EKVX; type: cell-based, human; conditions: EKVX
# MALME-3M = assay: NCI one-dose screening, melanoma MALME-3M; type: cell-based, human; conditions: MALME-3M
# M14 = assay: NCI one-dose screening, melanoma M14; type: cell-based, human; conditions: M14, 10 μM
# NCI-H226 = assay: NCI one-dose screening, non-small cell lung cancer NCI-H226; type: cell-based, human; conditions: NCI-H226, 10 μM
# TK-10 = assay: NCI one-dose screening, renal cancer TK-10; type: cell-based, human; conditions: TK-10, 10 μM
# IGROV1 = assay: NCI one-dose screening, ovarian cancer IGROV1; type: cell-based, human; conditions: IGROV1, 10 μM
# PC-3 = assay: NCI one-dose screening, prostate cancer PC-3; type: cell-based, human; conditions: PC-3, 10 μM
# SF-268 = assay: NCI one-dose screening, CNS cancer SF-268; type: cell-based, human; conditions: SF-268, 10 μM
# [1] = test system: PC-3 prostate cancer cell line; assay: SRB assay cell viability, PC-3 prostate cancer cell line; type: cell-based, human; conditions: Homo sapiens, PC-3 prostate cancer cell line, Table II prints no unit, μM printed, read-out: SRB assay: 50% inhibition of cancer cell proliferation of sample concentration (IC50) of PC-3 prostate cancer cell line
# NCI-H522 = assay: NCI one-dose screening, non-small cell lung cancer NCI-H522; type: cell-based, human; conditions: NCI-H522, 10 μM
# SF-295 = assay: NCI one-dose screening, CNS cancer SF-295; type: cell-based, human; conditions: SF-295, 10 μM
# HL-60, TB = assay: NCI one-dose screening, leukemia HL-60, TB; type: cell-based, human; conditions: HL-60(TB)
# T-47D = assay: NCI one-dose screening, breast cancer T-47D; type: cell-based, human; conditions: T-47D
# NCI-H460 = assay: NCI one-dose screening, non-small cell lung cancer NCI-H460; type: cell-based, human; conditions: NCI-H460, 10 μM
# 786-O = assay: NCI one-dose screening, renal cancer 786-O; type: cell-based, human; conditions: 786-0, 10 μM
# HS 578-T = assay: NCI one-dose screening, breast cancer HS 578-T; type: cell-based, human; conditions: Breast cancer, HS 578T, 10 μM
# OVCAR-5 = assay: NCI one-dose screening, ovarian cancer OVCAR-5; type: cell-based, human; conditions: OVCAR-5, 10 μM
# MDA-MB-231/ATCC = assay: NCI one-dose screening, breast cancer MDA-MB-231/ATCC; type: cell-based, human; conditions: MDA-MB-231/ATCC
# A549/ATCC = assay: NCI one-dose screening, non-small cell lung cancer A549/ATCC; type: cell-based, human; conditions: A549/ATCC
# HCC-2998 = assay: NCI one-dose screening, colon cancer HCC-2998; type: cell-based, human; conditions: HCC-2998, 10 μM
# NCI-H322M = assay: NCI one-dose screening, non-small cell lung cancer NCI-H322M; type: cell-based, human; conditions: Non-small cell lung cancer, NCI-H322M, 10 μM
# MDA-MB-468 = assay: NCI one-dose screening, breast cancer MDA-MB-468; type: cell-based, human; conditions: MDA-MB-468, 10 μM
# SN12C = assay: NCI one-dose screening, renal cancer SN12C; type: cell-based, human; conditions: SN12C
# PRMI-8226 cell line = assay: NCI one-dose screening, leukemia PRMI-8226; type: cell-based, human; conditions: RPMI-8226, 10 μM
# SNB-75 = assay: NCI one-dose screening, CNS cancer SNB-75; type: cell-based, human; conditions: SNB-75, 10 μM
# LOX IMVI = assay: NCI one-dose screening, melanoma LOX IMVI; type: cell-based, human; conditions: LOX IMVI
# K562cell line = assay: NCI one-dose screening, leukemia K562; type: cell-based, human; conditions: K562, 10 μM
# SNB-19 = assay: NCI one-dose screening, CNS cancer SNB-19; type: cell-based, human; conditions: SNB-19, 10 μM
# UACC-257 = assay: NCI one-dose screening, melanoma UACC-257; type: cell-based, human; conditions: UACC-257, 10 μM
# UACC-62 = assay: NCI one-dose screening, melanoma UACC-62; type: cell-based, human; conditions: UACC-62, 10 μM
# COLO 205 = assay: NCI one-dose screening, colon cancer COLO 205; type: cell-based, human; conditions: COLO 205, 10 μM
# CCRF-CEM = assay: NCI screening platform one-dose single concentration screening, leukemia CCRF-CEM; type: cell-based, human; conditions: CCRF-CEM
# HT29 = assay: NCI one-dose screening, colon cancer HT29; type: cell-based, human; conditions: HT29, 10 μM
# MCF7 = assay: NCI one-dose screening, breast cancer MCF7; type: cell-based, human; conditions: MCF7, 10 μM
# NCI-H23 = assay: NCI one-dose screening, non-small cell lung cancer NCI-H23; type: cell-based, human; conditions: NCI-H23, 10 μM
# U251 = assay: NCI one-dose screening, CNS cancer U251; type: cell-based, human; conditions: U251, 10 μM
# OVCAR-3 = assay: NCI one-dose screening, ovarian cancer OVCAR-3; type: cell-based, human; conditions: OVCAR-3, 10 μM
compound,measurement,setting,value
"O=C1c2ccccc2C(=O)c2c1cc(N1CCCC1)c1nsnc21 [C7, 4-(pyrrolidine-1-yl)anthra-[2,1-c][1,2,5] thiadiazol-6,11-dione]","Growth Percent (10 μM), Delta",human tumor cell lines; Delta over all cell lines tested,54.57%
same,"Growth Percent (10 μM), Mean",human tumor cell lines; Mean over all cell lines tested,85.69%
same,"Growth Percent (10 μM), Range",human tumor cell lines; Range over all cell lines tested,109.89%
same,Growth Percent (10 μM),"MDA, -MB-435",105.87%
same,Growth Percent (10 μM),CAKI-1,70.65%
same,Growth Percent (10 μM),BT-549,86.83%
same,Growth Percent (10 μM),OVCAR-4,77.50%
same,Growth Percent (10 μM),HCT-116,78.67%
same,Growth Percent (10 μM),EKVX,75.67%
same,Growth Percent (10 μM),MALME-3M,70.73%
same,Growth Percent (10 μM),M14,94.61%
same,Growth Percent (10 μM),NCI-H226,78.66%
same,Growth Percent (10 μM),TK-10,141.01%
same,Growth Percent (10 μM),IGROV1,75.83%
same,Growth Percent (10 μM),PC-3,71.01%
same,Growth Percent (10 μM),SF-268,98.43%
same,IC50,[1],> 15 µM
same,Growth Percent (10 μM),NCI-H522,83.41%
same,Growth Percent (10 μM),SF-295,87.02%
same,Growth Percent (10 μM),"HL-60, TB",104.58%
same,Growth Percent (10 μM),T-47D,78.19%
same,Growth Percent (10 μM),NCI-H460,89.11%
same,Growth Percent (10 μM),786-O,96.67%
same,Growth Percent (10 μM),HS 578-T,101.62%
same,Growth Percent (10 μM),OVCAR-5,111.75%
same,Growth Percent (10 μM),MDA-MB-231/ATCC,95.23%
same,Growth Percent (10 μM),A549/ATCC,63.51%
same,Growth Percent (10 μM),HCC-2998,104.58%
same,Growth Percent (10 μM),NCI-H322M,82.34%
same,Growth Percent (10 μM),MDA-MB-468,84.32%
same,Growth Percent (10 μM),SN12C,89.82%
same,Growth Percent (10 μM),PRMI-8226 cell line,76.16%
same,Growth Percent (10 μM),SNB-75,94.52%
same,Growth Percent (10 μM),LOX IMVI,69.55%
same,Growth Percent (10 μM),K562cell line,75.50%
same,Growth Percent (10 μM),SNB-19,90.45%
same,Growth Percent (10 μM),UACC-257,84.14%
same,Growth Percent (10 μM),UACC-62,95.64%
same,Growth Percent (10 μM),COLO 205,82.13%
same,Growth Percent (10 μM),CCRF-CEM,86.62%
same,Growth Percent (10 μM),HT29,98.60%
same,Growth Percent (10 μM),MCF7,59.71%
same,Growth Percent (10 μM),NCI-H23,59.74%
same,Growth Percent (10 μM),U251,80.49%
same,Growth Percent (10 μM),OVCAR-3,86.97%
